Read-outs that look alike come from different tables or passages of the source.
Experiments:
[1] = system: chloroquine resistant P. falciparum parasites (strain Dd2); experiment: Parasite growth inhibition assay in human red blood cells (flow cytometry, acridine orange); type: cell-based; conditions: Plasmodium falciparum, Erythrocyte
Procedure: The chloroquine resistant P. falciparum parasites (strain Dd2) were cultured in de-identified, IRB-exempt human red blood cells (RBCs) obtained from the American Red Cross and parasite cultures were maintained as described. Parasitaemia (percentage of total RBCs infected) was measured by flow cytometry on an Attune NxT (ThermoFisher) by nucleic-acid staining of cultured RBCs with phosphate-buffered saline (PBS) containing 0.8 µg ml^−1 acridine orange. We began by determining percent growth inhibition at single compound dose (20 µM) for the 102 non-toxic compounds. […] The experiments were initiated with a starting parasitaemia of ∼1% and parasitaemia was measured 72 and 96 h post compound addition. Growth was normalised to parasite cultures with carrier only (DMSO).
We tested the ability of the 102 compounds to kill P. falciparum parasites cultured in human red blood cells. Due to the number of compounds, we used a single inhibitor concentration of 20 µM and performed experiments in triplicate. […] These compounds were then tested in a dose-response format against chloroquine resistant P. falciparum parasites (Dd2) and the resulting data were fit to a sigmoidal growth inhibition curve to determine EC50 values (Figure 5, Table 2). […] Finally, to determine if the compounds were killing the parasites solely via apicoplast disruption, the dose-response curves were also performed with 1 mM isopentylpyrophosphate (IPP) in the growth media (Table 2). […] Very little is known regarding mitochondrial DNA replication in P. falciparum; however, signal sequence identification algorithms have predicted that the other bacterial A-family DNA polymerase residing in P. falciparum is targeted to the mitochondria (PF3D7_0625300)[29]. […] We are currently in the process of cloning and expressing this putative mitochondrial DNA polymerase to determine the effect of these compounds on its activity.

[2] = target: P. falciparum apicoplast DNA polymerase (Pf-apPOL) (Plasmodium falciparum, UniProt Q8ILY1); experiment: Fluorescence-based high-throughput DNA polymerase assay (molecular beacon), primary screen and dose-response; type: biochemical;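 on % inhibition ApPOL 90': test concentration in µM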;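 on % inhibition apPOL 180': test concentration in µM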
How it was run: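 Single-point screening used 10 µM compound with 20 nM polymerase, 20 nM hairpin substrate and 6 µM dNTPs for 90 min at 25 °C. Confirmatory titrations (2.5–80 µM) followed fluorescence at three times, and IC50 was derived from a fit including a cooperativity term n.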

[3] = Dd2 parasites in human RBCs, dose-response, no IPP, read-out: EC50
[4] = Dd2 parasites, 1 mM isopentylpyrophosphate (IPP) in the growth media, read-out: EC50 + IPP
[5] = read-out: IC50 Pf-apPOL; Table 2
[6] = supplemental file 2, sheet IC50 nontoxic compounds; Pf-apPOL

P. falciparum apicoplast DNA polymerase (Pf-apPOL), sequence (Q8ILY1 entry or part of it): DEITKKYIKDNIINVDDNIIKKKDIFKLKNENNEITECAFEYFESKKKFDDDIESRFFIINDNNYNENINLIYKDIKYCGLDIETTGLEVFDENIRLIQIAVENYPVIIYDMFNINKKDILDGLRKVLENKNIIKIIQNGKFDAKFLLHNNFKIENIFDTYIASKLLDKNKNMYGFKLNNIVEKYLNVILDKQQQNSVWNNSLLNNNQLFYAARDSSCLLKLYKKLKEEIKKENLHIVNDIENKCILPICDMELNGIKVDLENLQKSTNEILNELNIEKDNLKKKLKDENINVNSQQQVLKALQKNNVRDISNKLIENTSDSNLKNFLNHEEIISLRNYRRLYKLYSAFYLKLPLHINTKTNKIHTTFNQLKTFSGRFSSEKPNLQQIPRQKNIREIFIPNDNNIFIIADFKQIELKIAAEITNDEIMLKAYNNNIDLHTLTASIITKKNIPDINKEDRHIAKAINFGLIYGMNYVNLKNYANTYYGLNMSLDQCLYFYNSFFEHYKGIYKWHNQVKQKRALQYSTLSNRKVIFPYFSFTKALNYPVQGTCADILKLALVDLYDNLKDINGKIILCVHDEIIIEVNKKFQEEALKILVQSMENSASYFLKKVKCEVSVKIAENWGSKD

Compound: CC(C)(C)c1cc(C(=O)C(C#N)=NNc2cccc(Cl)c2)no1 [Molecule 98]
- EC50 [1, 3]: 16 ± 1 µM
- EC50 [1, 4]: 11 ± 1 µM
- IC50 [2, 5]: 8 ± 2 µM
- IC50 [2, 6]: 8.45 µM

Compound: Cn1nc(-c2nnc(-c3ccccc3F)o2)c2c1CCN(C(=O)c1ccccc1Cl)C2 [Molecule 34]
- EC50 [1, 3]: 11.3 ± 0.9 µM
- EC50 [1, 4]: 10 ± 0.7 µM
- IC50 [2, 5]: 7.2 ± 0.9 µM
- IC50 [2, 6]: 7.21 µM

Compound: O=C1Nc2ccc(I)cc2C1=Cc1cc(Br)c(O)c(Br)c1 [Molecule 27]
- EC50 [1, 3]: 10 ± 1 µM
- EC50 [1, 4]: 9 ± 1 µM
- IC50 [2, 5]: 15 ± 1 µM
- IC50 [2, 6]: 15.6 µM

Compound: Oc1cccnc1/N=C/c1cc(I)cc(I)c1O [KU0073720]
- % inhibition Apo pol 10' ([2]; DRC-1; concentration 2.5; 10'): 24.1498%
- % inhibition Apol 90' ([2]; DRC-1; concentration 2.5; 90'): 12.6325%
- % inhibition apPOL 180' ([2]; DRC-1; concentration 2.5; 180'): 7.269%
- % inhibition Apo pol 10' ([2]; DRC-1; concentration 5; 10'): 35.1256%
- % inhibition Apol 90' ([2]; DRC-1; concentration 5; 90'): 18.9546%
- % inhibition apPOL 180' ([2]; DRC-1; concentration 5; 180'): 7.696%
- % inhibition Apo pol 10' ([2]; DRC-1; concentration 10; 10'): 54.1581%
- % inhibition Apol 90' ([2]; DRC-1; concentration 10; 90'): 35.5541%
- % inhibition apPOL 180' ([2]; DRC-1; concentration 10; 180'): 22.0989%
- % inhibition Apo pol 10' ([2]; DRC-1; concentration 20; 10'): 82.6757%
- % inhibition Apol 90' ([2]; DRC-1; concentration 20; 90'): 72.4882%
- % inhibition apPOL 180' ([2]; DRC-1; concentration 20; 180'): 62.032%
- % inhibition Apo pol 10' ([2]; DRC-1; concentration 40; 10'): 88.0061%
- % inhibition Apol 90' ([2]; DRC-1; concentration 40; 90'): 85.8588%
- % inhibition apPOL 180' ([2]; DRC-1; concentration 40; 180'): 82.0572%
- % inhibition Apo pol 10' ([2]; DRC-1; concentration 80 (unit not given); 10'): 86.1265%
- % inhibition Apol 90' ([2]; DRC-1; concentration 80; 90'): 87.3428%
- % inhibition apPOL 180' ([2]; DRC-1; concentration 80; 180'): 87.5745%
- % inhibition Apo pol 5' ([2]; DRC-2; 5'; concentration 40): 63%
- % inhibition Apol 40' ([2]; DRC-2; 40'; concentration 20): 63%
- % inhibition Apo pol 5' ([2]; DRC-2; concentration 2.5; 5'): 26%
- % inhibition Apol 40' ([2]; DRC-2; concentration 2.5; 40'): 24%
- % inhibition ApPOL 90' ([2]; DRC-2; concentration 2.5; 90'): 22%
- % inhibition apPOL 180' ([2]; DRC-2; concentration 2.5; 180'): 15%
- % inhibition Apo pol 5' ([2]; DRC-2; concentration 5; 5'): 36%
- % inhibition Apol 40' ([2]; DRC-2; concentration 5; 40'): 33%
- % inhibition ApPOL 90' ([2]; DRC-2; concentration 5; 90'): 28%
- % inhibition apPOL 180' ([2]; DRC-2; concentration 5; 180'): 17%
- % inhibition Apo pol 5' ([2]; DRC-2; concentration 10; 5'): 51%
- % inhibition Apol 40' ([2]; DRC-2; concentration 10; 40'): 52%
- % inhibition ApPOL 90' ([2]; DRC-2; concentration 10; 90'): 49%
- % inhibition apPOL 180' ([2]; DRC-2; concentration 10; 180'): 37%
- % inhibition Apo pol 5' ([2]; DRC-2; concentration 20; 5'): 57%
- % inhibition Apol 40' ([2]; DRC-2; concentration 20; 40'): 63%
- % inhibition ApPOL 90' ([2]; DRC-2; concentration 20; 90'): 62%
- % inhibition apPOL 180' ([2]; DRC-2; concentration 20; 180'): 54%
- % inhibition Apo pol 5' ([2]; DRC-2; concentration 40; 5'): 63%
- % inhibition Apol 40' ([2]; DRC-2; concentration 40; 40'): 73%
- % inhibition ApPOL 90' ([2]; DRC-2; concentration 40; 90'): 75%
- % inhibition apPOL 180' ([2]; DRC-2; concentration 40; 180'): 74%
- % inhibition Apo pol 5' ([2]; DRC-2; concentration 80; 5'): 58%
- % inhibition Apol 40' ([2]; DRC-2; concentration 80; 40'): 72%
- % inhibition ApPOL 90' ([2]; DRC-2; concentration 80; 90'): 76%
- % inhibition apPOL 180' ([2]; DRC-2; concentration 80; 180'): 77%
- DNA Pol ([2]; primary screen value of the 186 hits; unit not given; 90 min, 10 µM): 46
- DNA Pol ([2]; primary screen value; head prints only 'DNA Pol'; 90 min, 10 µM): 46

Compound: COCC(=O)Nc1c(-c2cccc(F)c2)nc2cc(C)ccn12 [Molecule 44]
- IC50 [2, 6]: 11.1 µM

Compound: Cc1ccc(N2CCC(NC(=O)Cc3cccs3)C2=O)cc1C (stereo not shown) [Molecule 57]
- IC50 [2, 6]: 29 µM

Compound: O=c1cc(-c2ccccc2)oc2c(O)c(O)ccc12 [Molecule 84]
- IC50 [2, 6]: 32.2 µM

Compound: O=C(Cc1cccs1)N1CCN(c2nc(CN3CCOCC3)cs2)CC1 [Molecule 35]
- IC50 [2, 6]: 11.2 µM

Compound: COc1ccc(C(=O)N2CCc3c(nc4cc(-c5ccccc5Cl)[nH]n4c3=O)C2)cn1 [Molecule 26]
- IC50 [2, 6]: 9.65 µM

Compound: Cc1cc2[nH]c(C(=O)Nc3ccc(F)cc3)c(CN3CCOCC3)c2s1 [Molecule 60]
- IC50 [2, 6]: 21.6 µM
